Assay results published in article PMC8262356, “SLC26A6-selective inhibitor identified in a small-molecule screen blocks fluid absorption in small intestine” (JCI Insight, 2021).

Target: T1, ENaC (Homo sapiens, UniProt P37088+P51168+P51170)
T1 construct: endogenous in cells; host or cells: well-differentiated human bronchial epithelial (HBE) cells at air-liquid interface
T1 sequence (P37088 1-669): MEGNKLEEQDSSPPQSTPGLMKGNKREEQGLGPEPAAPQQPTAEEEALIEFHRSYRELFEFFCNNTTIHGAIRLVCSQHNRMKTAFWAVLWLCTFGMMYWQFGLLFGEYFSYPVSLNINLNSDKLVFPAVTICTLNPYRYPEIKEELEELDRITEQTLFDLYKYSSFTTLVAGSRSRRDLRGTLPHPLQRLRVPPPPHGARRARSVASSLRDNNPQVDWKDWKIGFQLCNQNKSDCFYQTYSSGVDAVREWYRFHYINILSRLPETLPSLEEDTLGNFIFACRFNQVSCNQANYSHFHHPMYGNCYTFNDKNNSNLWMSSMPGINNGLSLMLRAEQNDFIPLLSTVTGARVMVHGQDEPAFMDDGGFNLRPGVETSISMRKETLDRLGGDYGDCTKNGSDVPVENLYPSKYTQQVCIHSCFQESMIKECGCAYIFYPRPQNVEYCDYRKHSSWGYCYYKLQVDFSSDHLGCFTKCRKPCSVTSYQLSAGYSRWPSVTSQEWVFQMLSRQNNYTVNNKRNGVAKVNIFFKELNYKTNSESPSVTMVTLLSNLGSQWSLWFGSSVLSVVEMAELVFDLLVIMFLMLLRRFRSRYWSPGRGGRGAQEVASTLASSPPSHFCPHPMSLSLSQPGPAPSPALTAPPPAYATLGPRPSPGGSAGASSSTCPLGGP
T1 sequence (P51168 1-640): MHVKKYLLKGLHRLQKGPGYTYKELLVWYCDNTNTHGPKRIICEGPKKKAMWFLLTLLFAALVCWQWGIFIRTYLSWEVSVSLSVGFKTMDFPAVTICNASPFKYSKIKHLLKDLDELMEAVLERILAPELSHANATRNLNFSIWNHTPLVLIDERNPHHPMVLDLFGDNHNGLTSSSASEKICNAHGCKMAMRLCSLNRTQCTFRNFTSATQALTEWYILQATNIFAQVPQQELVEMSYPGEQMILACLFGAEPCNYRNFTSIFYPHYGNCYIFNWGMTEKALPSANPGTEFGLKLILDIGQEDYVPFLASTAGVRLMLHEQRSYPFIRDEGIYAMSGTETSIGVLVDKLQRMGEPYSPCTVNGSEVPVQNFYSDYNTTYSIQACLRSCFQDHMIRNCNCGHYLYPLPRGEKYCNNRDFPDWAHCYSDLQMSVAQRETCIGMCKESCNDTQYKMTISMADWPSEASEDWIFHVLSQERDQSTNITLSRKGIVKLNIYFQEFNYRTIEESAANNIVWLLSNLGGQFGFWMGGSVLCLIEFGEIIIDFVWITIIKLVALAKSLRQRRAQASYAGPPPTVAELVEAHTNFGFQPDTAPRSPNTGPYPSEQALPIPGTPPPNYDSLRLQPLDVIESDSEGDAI
T1 sequence (P51170 1-649): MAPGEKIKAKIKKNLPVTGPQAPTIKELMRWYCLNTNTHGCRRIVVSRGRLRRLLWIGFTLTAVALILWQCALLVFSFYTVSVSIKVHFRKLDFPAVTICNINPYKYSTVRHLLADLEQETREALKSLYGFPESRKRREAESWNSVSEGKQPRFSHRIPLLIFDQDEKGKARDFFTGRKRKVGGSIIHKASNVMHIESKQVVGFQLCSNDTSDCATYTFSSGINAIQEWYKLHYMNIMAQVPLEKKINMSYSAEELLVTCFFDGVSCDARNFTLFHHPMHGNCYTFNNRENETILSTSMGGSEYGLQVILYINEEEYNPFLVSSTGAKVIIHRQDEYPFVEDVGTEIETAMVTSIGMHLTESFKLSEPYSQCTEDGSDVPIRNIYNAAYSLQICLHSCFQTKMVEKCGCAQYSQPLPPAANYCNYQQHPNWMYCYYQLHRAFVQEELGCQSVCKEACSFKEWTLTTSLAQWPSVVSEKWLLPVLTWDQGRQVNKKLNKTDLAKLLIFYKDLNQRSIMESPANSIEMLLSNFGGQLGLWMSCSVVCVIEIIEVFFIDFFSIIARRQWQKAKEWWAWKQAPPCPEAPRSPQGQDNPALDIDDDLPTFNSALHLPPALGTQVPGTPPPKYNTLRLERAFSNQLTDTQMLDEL
Assay: Short-circuit current in well-differentiated HBE cells, amiloride response
Assay type: cell-based
Details: 25 μM pretreatment
Protocol: PAT1inh-B01 selectivity was studied by testing its effects on related SLC26A family anion transporters and the Cl^– channel TMEM16A. These measurements used a similar Cl^–/I^– exchange protocol, but FRT cells separately expressed each of the SLC26A family members or TMEM16A. […] PAT1inh-B01 selectivity was also tested by short-circuit current (Isc) in well-differentiated human bronchial epithelial (HBE) cells, which have a complex ion transport mechanism that includes cystic fibrosis transmembrane conductance regulator (CFTR), epithelial Na^+ channel (ENaC), and Ca^+2-activated chloride channels (CaCCs) ([13]). […] Potential PAT1inh-B01 cytotoxicity was studied in FRT cells.
Figure 3 PAT1inh-B01 selectivity and cytotoxicity. […] Cl^–/I^– exchange or I^– influx measured in FRT cells coexpressing YFP and SLC26A isoforms or TMEM16A, with data shown for 25 μM PAT1inh-B01, DMSO vehicle control, and 500 μM niflumic acid (positive control for SLC26A transporters) or 10 μM TMinh-23 (positive control for TMEM16A). […] (C) (left) Short-circuit current (Isc) in well-differentiated HBE cells measured in the absence (top) and presence (bottom) of 25 μM PAT1inh-B01. […]
YFP-based cellular assays of slc26a3, slc26a4, SLC26A9, and TMEM16A function were performed as described previously ([7]). […] The activities of ENaC, CFTR, and CaCC were determined using well-differentiated HBE cells as described previously ([13]). […]

SMILES: Cc1c(Br)c(C(F)(F)F)nn1CC(=O)N1CCc2nc3cc(-c4ccccc4)[nH]n3c(=O)c2C1 [PAT1inh-B01]
- effect on ENaC activity (Isc response to amiloride): no significant effect
